From patent US6087364A, “Dopamine D4 receptor antagonists” (Warner-Lambert Company, priority 1998, dated 2000)
Like-named read-outs stand apart in the source and are kept apart here.

Legend:
[1] = biological target: T1, human recombinant dopamine D4.2 receptor (Homo sapiens, UniProt P21917, DEL265-296); experiment: D4.2 dopamine receptor binding assay ([3H]spiperone, membranes of CHO K1 cells); settings: human D4.2 receptor, 0.2 nM [3H]spiperone, 60 min, 25° C., apparent Ki from IC50 (Cheng and Prusoff)
T1 construct: expressed in transfected cells
T1 sequence (P21917 with tags, fused parts or gaps DEL265-296): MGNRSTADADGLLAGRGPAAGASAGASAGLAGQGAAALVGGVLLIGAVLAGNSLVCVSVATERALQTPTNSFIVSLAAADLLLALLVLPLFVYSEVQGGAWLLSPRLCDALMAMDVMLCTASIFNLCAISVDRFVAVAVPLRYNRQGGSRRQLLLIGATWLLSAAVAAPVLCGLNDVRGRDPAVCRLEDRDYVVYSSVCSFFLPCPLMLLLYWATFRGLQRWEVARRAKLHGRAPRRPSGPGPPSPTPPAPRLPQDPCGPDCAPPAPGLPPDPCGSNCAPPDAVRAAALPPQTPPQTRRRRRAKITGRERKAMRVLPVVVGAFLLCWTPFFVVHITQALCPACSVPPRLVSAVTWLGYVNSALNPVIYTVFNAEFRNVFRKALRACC
Source text: (§1) A cell line expressing human dopamine D2 (Long form) receptors was purchased from Oregon Health Sciences University, Portland, Oreg. The D2 receptor cDNA was subcloned into an expression vector, pRc/CMV. The plasmids were transfected by electroporation into CHO K1 cells. A single stable transfectant, resistant to the antibiotic G418, was isolated and selected for use in the binding studies. For D4 binding, CHO K1 cells stably transfected to express the human recombinant dopamine D4.2 receptor subtype, as described by Shih, et al., "The Expression and Functional Characterization of Human Dopamine D4.2 Receptor in CHO K1 Cells," Soc. Neurosci., 21(Part 1): 621 (1995).
(§2) CHO K1 cells expressing either human D2 and D4.2 receptors were grown in 162 cm^2 culture flasks in F12 medium (Gibco Laboratories, Grand Island, N.Y.) supplemented with 10% fetal bovine serum (FBS, Hyclone, Logan, Utah) in an atmosphere of 5% CO2 /95% air at 37° C. Cells were grown until confluent, after which growth medium was removed and replaced with 0.02% ethylene diamine tetracetate (EDTA) in a phosphate-buffered saline solution (Sigma Chemical Co., St. Louis, Mo.) and scraped from the flasks. The cells were centrifuged at about 1000× g for 10 minutes at […] and then resuspended in TEM buffer (25 mM Tris-HCl, pH 7.4, 5 mM EDTA, and 6 mM MgCl2) for D2 or the D4.2 buffer (50 mM Tris-HCl, pH 7.4, 5 mM EDTA, 1.5 mM CaCl2, 5 mM KC1, and 120 mM NaCl) and homogenized. The membranes were pelleted by centrifugation at 20,000× g at […] for 20 minutes. Then the pellets were resuspended in appropriate buffer at 1 mL/flask and stored at -70° C. until used in the receptor binding assay.
(§3) After 60 minutes incubation at 25° C., the incubations were terminated by rapid filtration through Whatmann GF/B glass fibre filters (soaked for 1 hour in 0.5% polyethylenimine) on a cell harvester, with three washes of 1 mL ice-cold buffer. Individual filter disks containing the bound ligand were placed in counting vials with 4 mL of scintillation fluid (Ready Gel, Beckman Instrument Inc., Fullerton, Calif.) and then counted in a Beckman LS-6800 liquid scintillation counter at an efficiency of 45%. Nonspecific binding was defined in presence of 1 mM of haloperidol.
(§4) Saturation and competition binding data were analyzed using an iterative nonlinear least-square curve-fitting Ligand program. […] Experimental compounds were made up as stock solutions in dimethyl sulfoxide (DMSO). […] Each observation was carried out in triplicate. To allow these calculations, Kd values were measured for the interaction of various ligands with the receptor.

[2] = biological target: human dopamine D2 (Long form) receptor (Homo sapiens, UniProt P14416); experiment: D2 dopamine receptor binding assay ([3H]spiperone, membranes of CHO K1 cells)
Source text: as §1, §2, §3, §4

[3] = system: amphetamine-stimulated locomotion; experiment: Blockade of Amphetamine-Stimulated Locomotion (BASL) in Rats; type: in vivo, Male Sprague-Dawley rats; settings: Rattus norvegicus, 0.5 h, read-out: BASL ED50, mg/kg PO (dose which would reverse amphetamine-stimulated locomotion by 50%), drug 30 minutes prior to test, amphetamine 0.5 mg/kg IP 15 minutes prior to test, 30 minute test
Source text: Blockade of Amphetamine-Stimulated Locomotion (BASL) in Rats
Hyperactivity of brain dopamine (DA) neuronal systems is believed to contribute to the symptomology of schizophrenia. This hypothesis is supported, in part, by the ability of drugs such as the indirect DA agonist, amphetamine, to exacerbate schizophrenia. The stimulatory effect of amphetamine can be blocked by one of two mechanisms: a postsynaptic blockade of DA receptors, or by the action of DA autoreceptor agonists at inhibitory presynaptic DA receptor sites. Currently available antipsychotic drugs are DA receptor antagonists; however, these compounds can also cause extrapyramidal side effects apparently due to complete postsynaptic receptor blockade. Antipsychotic agents produce sedation (manifested as decreased locomotion) in normal animals, as well as in animals treated with psychomotor stimulants by reducing the access of endogenous DA to postsynaptic receptors in the brain.
Male Sprague-Dawley rats (Harlan Labs) were used for these studies. Drugs were dissolved in saline or water and administered either orally (PO) or intraperitoneally (IP) in volumes of 5 mL/kg. Saline control rats and amphetamine (0.5 mg/kg IP) control rats are included with each study (n=4-6 rats per treatment group). for the IP studies, amphetamine is given 20 minutes prior to the drug, after which a 30 minute locomotor activity test is conducted. For the oral study, drug is dosed 30 minutes prior to test, while amphetamine is given 15 minutes prior to test, which allows time for oral absorption. Locomotor activity (centimeters travelled per 30 minute test) is measured in 16"×16" open chambers. Amphetamine generally produces a 2- to 3-fold increase in locomotion over saline controls. Drug effects are reported as percent reversal of amphetamine-stimulated locomotion. Significant changes in amphetamine-stimulated locomotion, relative to amphetamine-treated controls, were determined by t-test.

Chain of human dopamine D2 (Long form) receptor (P14416 whole entry): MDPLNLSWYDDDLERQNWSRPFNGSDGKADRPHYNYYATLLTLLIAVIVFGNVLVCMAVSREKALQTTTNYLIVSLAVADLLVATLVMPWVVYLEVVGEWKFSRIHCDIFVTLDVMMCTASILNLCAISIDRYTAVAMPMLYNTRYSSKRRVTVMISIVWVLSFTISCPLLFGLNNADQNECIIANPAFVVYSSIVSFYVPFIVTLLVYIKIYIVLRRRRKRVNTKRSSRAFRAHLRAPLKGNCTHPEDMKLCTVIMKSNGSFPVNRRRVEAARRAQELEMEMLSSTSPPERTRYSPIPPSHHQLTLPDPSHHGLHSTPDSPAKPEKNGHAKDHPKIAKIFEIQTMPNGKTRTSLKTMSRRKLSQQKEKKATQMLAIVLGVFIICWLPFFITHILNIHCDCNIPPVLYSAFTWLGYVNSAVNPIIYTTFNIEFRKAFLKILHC

| SMILES | Ki [1] | Ki [2] | Ki ([2]; human D2 receptor, CHO K1 membranes, 0.2 nM [3H]spiperone, 60 min, 25° C., apparent Ki from IC50 (Cheng and Prusoff)) | ED50 [3] |
| --- | --- | --- | --- | --- |
| O=C1NC(CCN2CCN(c3ccc(Cl)cc3)CC2)c2ccccc21 (stereo not drawn) [3-[2-(4-p-Chlorophenyl-piperazin-1-yl)-ethyl]-2,3-dihydro-isoindol-1-one] | 27.8 nM | > 5880 nM | – | – |
| Cc1ccc(C2CCN(CCC3NC(=O)c4ccccc43)CC2)cc1C (stereo not drawn) [3-{2-[4-(3,4-Dimethyl-phenyl)-piperidin-1-yl]-ethyl}-2,3-dihydro-isoindol-1-one] | 9.27 nM | – | 1210 nM | – |
| Cc1ccc(N2CCN(CCC3NC(=O)c4ccccc43)CC2)cc1C (single isomer, unassigned; (+)) [(+)-3-{2-[4-(3,4-Dimethyl-phenyl)-piperazin-1-yl]-ethyl}-2,3-dihydro-isoindol-1-one] | 42 nM | – | – | – |
| Cc1ccc(N2CCN(CCC3NC(=O)c4ccccc43)CC2)cc1 (stereo not drawn) [3-[2-(4-P-Tolyl-piperazin-1-yl)-ethyl]-2,3-dihydro-isoindol-1-one] | 12.4 nM | > 5880 nM | – | < 1 mg/kg |
| Cc1ccc(N2CCN(CCC3NC(=O)c4ccccc43)CC2)nc1 (stereo not drawn) [3-{2-[4-(5-Methyl-pyridin-2-yl)-piperazin-1-yl]-ethyl}-2,3-dihydro-isoindol-1-one] | 22.6 nM | > 5880 nM | – | – |
| O=C1NC(CCN2CCC(=C(c3ccccc3)c3ccccc3)CC2)c2ccccc21 (stereo not drawn) [3-[2-(4-(Diphenylmethylene)-piperidin-1-yl)-ethyl]-2,3-dihydro-isoindol-1-one] | 99.7 nM | 2150 nM | – | – |
| Cc1nc(N2CCN(CCC3NC(=O)c4ccccc43)CC2)sc1C (stereo not drawn) [3-[2-(4-(4,5-Dimethyl-thiazol-2-yl)-piperazin-1-yl)-ethyl]-2,3-dihydro-isoindol-1-one] | 20.8 nM | > 5880 nM | – | – |
| COc1ccc(N2CCN(CCC3c4ccccc4C(=O)N3C)CC2)cc1 (stereo not drawn) [3-[2-(4-p-Methoxyphenyl-piperazin-1-yl)-ethyl]-2,3-dihydro-2-methyl-isoindol-1-one] | 37.3 nM | > 5880 nM | – | – |
| Cc1ccc(N2CCN(CCC3NC(=O)c4ccccc43)CC2)cc1C (stereo not drawn) [3-{2-[4-(3,4-Dimethyl-phenyl)-piperazin-1-yl]-ethyl}-2,3-dihydro-isoindol-1-one] | 8.77 nM | – | – | 3 mg/kg |
| Cc1ccc(N2CCN(CCC3NC(=O)c4ccccc43)CC2)cc1C (single isomer, unassigned; (-)) [(-)-3-{2-[4-(3,4-Dimethyl-phenyl)-piperazin-1-yl]-ethyl}-2,3-dihydro-isoindol-1-one] | 7.8 nM | – | – | 1.5 mg/kg |
| O=C1NC(CCN2CCN(c3ccccc3)CC2)c2ccccc21 (stereo not drawn) [3-[2-(4-Phenyl-piperazin-1-yl)-ethyl]-2,3-dihydro-isoindol-1-one] | 24.5 nM | – | – | – |
